Measurements: publication PMC8672821, “Investigating 3,3-diaryloxetanes as potential bioisosteres through matched molecular pair analysis” (RSC Medicinal Chemistry, 2021)

Experiments:
[1] = elogD, automated reversed phase-HPLC logD (pH 7.4); format: physicochemical; conditions: Supelcosil LC-ABZ column
Protocol: (§1) elogD: An automated reversed phase-HPLC method developed by Lombardo et al. was used for logD (pH 7.4) measurements. All the chromatographic runs were performed on a HP -1100 HPLC ChemStation at the ambient temperature. The HPLC columns used were Supelcosil LC-ABZ, 5 µm, 4.6 mm × 50 mm. A diode array detector was used to monitor signals at 210, 225, 245, and 310 nm. The mobile phase consisted of 15−75% of A and 85−25% of B.
(§2) Mobile phase A: methanol with addition of 0.25% 1-octanol.
(§3) Mobile phase B: 20 mM of MOPS (morpholine−propane−sulfonic acid) buffer prepared in octanol saturated water and 0.25% of n-decylamine.
(§4) Samples were prepared in 1:1 mixture of methanol/water at 100 μg/mL concentration.
The retention of each compound is obtained at three different concentrations of methanol in the mobile phase and extrapolated to 0% methanol (100% water). […]

[2] = Chemical (pH) stability assay; format: physicochemical; conditions: low pH (1.2), 37 °C, up to 4 h
Protocol: as §1, §2, §3, §4
The retention of each compound is obtained at three different concentrations of methanol in the mobile phase and extrapolated to 0% methanol (100% water).
(§5) HLM Assay: The high throughput human microsomal stability assay was performed in a 384 -well format.
All liquid handling and incubation were conducted with a Biomek FX, equipped with one 3 position Mecour heat exchangers. Pooled human liver microsomes of 50 don ors (Lot: HLM-103) were purchased from BioIVT. […]
Assay ready plated: Plate containing 6µL at 30 mM of test compounds in 96 deep well plate (volume = 600 µL). […]

[3] = RRCK passive permeability assay; format: in vitro ADME, canine; conditions: dog, MDCK; read-out: RRCK cell permeability
Protocol: Aqueous buffer preparation: pH 3: 50 µL of 1N hydrochloric acid was added to 500 mL of deionized water.
The solution was titrated with 1N hydrochloric acid to pH 3, and back titrated with 1N sodium hydroxide. pH 7.4: 100 mM sodium phosphate buffer is made by adding 56.4 g of dibasic sodium phosphate and 10.3 g of monobasic sodium phosphate to 4 L of deionized water. 250 µL of 100 mM sodium phosphate buffer was diluted with 250 µL of deionized water. The solution was titrated with 1N hydrochloric acid to pH 7.4, and back titrated with 1N sodium hydroxide. pH 10: Fisher Scientific pH 10 buffer (SB116-500) containing potassium hydroxide, potassium carbonate, and potassium borate. pH 12.8: 30 mL of 1N NaOH was added to 200 mL of deionized water. The solution was titrated with 1N sodium hydroxide to pH 12.8, and back titrated with 1N hydrochloric acid.
RRCK: Passive permeability assay were carried out using low‐efflux MDCKII cells (Madin–Darby canine kidney cell line) also called Ralph Russ Canine Kidney cell (RRCK).11

[4] = Clearance by human liver microsomes (HLM) stability assay; format: in vitro ADME; conditions: pH 7.4; pooled human liver microsomes, 1 µM test compound, 37 °C
Protocol: as §5
All liquid handling and incubation were conducted with a Biomek FX, equipped with one 3 position Mecour heat exchangers. Pooled human liver microsomes of 50 don ors (Lot: HLM-103) were purchased from BioIVT. Each incubation contained test compound (1 µM), human liver microsomes ([…] CYP protein equivalent to 0.806 mg/mL protein concentration), NADPH (1.3 mM), MgCl 2 (3.3 mM) and potassium phosphate buffer (100 mM at pH 7.4). The final reaction volume was […] containing 0.01% DMSO. The incubations were conducted at 37 °C at various time points (1, 4, 7, 12, 20, 25, 45, 60 min). Cold acetonitrile with mass spectrometry (MS) internal standard (IS, CP-628374) was then added to quench the reaction.
The plates were centrifuged at 3000 rpm for 10 min at 4 °C (Sorvall RC 3C Plus, Thermo Scienti fic, Waltham, MA). The water layer was transferred to the 384 -well plate, sealed and subsequently analy sed using LCeMS/MS. Control plates were prepared in the same manner without adding the NADPH cofactor to monitor any non-CYP catalysed decline. Propranolol (2D6, 1A2 and 2C19 substrate), quinidine (3A4), diclofenac (2C9), verapamil (3A4, 1A2, 2C), amitriptyline (2D6, 2C19) and naloxone (UGT2B7) were used as positive controls on each plate to monitor the activities of the various CYPs in the assay. […]

| SMILES | chromatographic logD [1] | melting point [°C] | logD (sfLogD) | other results |
| --- | --- | --- | --- | --- |
| Cc1cc(C2(c3cn(C)c4ccccc34)COC2)ccc1OC1CNC1 [1a] | 2.13 | 100 to 103 | 1.37 | – |
| Cc1cc(C(=O)c2cn(C)c3ccccc23)ccc1OC1CNC1 [1b] | – | 70 to 75 | 1.07 | – |
| Cc1cc(Cc2cn(C)c3ccccc23)ccc1OC1CNC1 [1c] | 3.1 | 80 to 82 | 1.68 | – |
| Cc1cc(C(C)(C)c2cn(C)c3ccccc23)ccc1OC1CNC1 [1d] | 2.9 | 75 to 80 | 2.59 | – |
| Cc1cc(C2(c3cn(C)c4ccccc34)CCC2)ccc1OC1CNC1 [1e] | 3.2 | – | 2.81 | – |
| Cn1cc(C2(c3ccc(OC4CNC4)cc3)COC2)c2ccccc21 [2a] | 1.7 | – | 0.99 | – |
| Cc1cc(C2(c3cn(C)c4ccccc34)COC2)ccc1Oc1ccccn1 [3a] | 4.6 | 175 to 177 | 4.36 | – |
| Cc1cc(C(=O)c2cn(C)c3ccccc23)ccc1Oc1ccccn1 [3b] | 3.99 | 123 to 124 | 1.92 | – |
| Cc1cc(C2(c3cn(C)c4ccccc34)COC2)ccc1-c1cnc(C(F)(F)F)nc1 [4a] | 5.1 | 181 to 182 | – | – |
| Cc1cc(C(=O)c2cn(C)c3ccccc23)ccc1-c1cnc(C(F)(F)F)nc1 [4b] | 4.3 | 185 to 187 | 4.21 | – |
| Cc1cc(C2(c3cn(C)c4ccccc34)COC2)ccc1O [5a] | 3.73 | 233 to 235 | 3.63 | chemical stability (% compound remaining), in words [2]: poorer stability at low pH |
| Cc1cc(C(=O)c2cn(C)c3ccccc23)ccc1O [5b] | 3.3 | 239 to 241 | 3.33 | chemical stability (% compound remaining), in words [2]: poorer stability at low pH |
| Cc1cc(Cc2cn(C)c3ccccc23)ccc1O [5c] | 4.78 | 77 to 79 | 2.79 | Papp [3]: 0.1 ×10⁻⁶ cm/s |
| Cc1cc(C(C)(C)c2cn(C)c3ccccc23)ccc1O [5d] | 5.05 | 110 to 112 | 3.72 | – |
| Cc1cc(C2(c3cn(C)c4ccccc34)CCC2)ccc1O [5e] | 5.4 | 120 to 121 | 4.4 | Papp [3]: 0.1 ×10⁻⁶ cm/s |
| Cn1cc(C2(c3ccc(O)cc3)COC2)c2ccccc21 [6a] | 3.28 | 207 to 209 | 3.27 | – |
| COc1ccc(C2(c3ccc(OC4CNC4)c(C)c3)COC2)cc1 [7a] | 1.43 | 108 to 115 | 1.06 | – |

| SMILES | chromatographic logD [1] | melting point [°C] | logD (sfLogD) | other results |
| --- | --- | --- | --- | --- |
| COc1ccc(C(=O)c2ccc(OC3CNC3)c(C)c2)cc1 [7b] | 1.74 | 99 to 103 | 1.21 | – |
| COc1ccc(C2(c3ccc(N4CCOCC4)c(C)c3)COC2)cc1 [8a] | 3.68 | 133 to 135 | 3.47 | – |
| COc1ccc(C(=O)c2ccc(N3CCOCC3)c(C)c2)cc1 [8b] | 3.9 | – | 3.06 | – |
| COc1ccc(C2(c3ccc(-c4c[nH]nc4C(F)(F)F)c(C)c3)COC2)cc1 [9a] | 4.5 | 175 to 177 | 4.62 | – |
| COc1ccc(C(=O)c2ccc(-c3c[nH]nc3C(F)(F)F)c(C)c2)cc1 [9b] | 4.8 | 207 to 208 | 4.74 | – |
| COc1ccc(C2(c3ccc(O)c(C)c3)COC2)cc1 [10a] | 3.07 | 140 to 143 | 3.22 | – |
| COc1ccc(C(=O)c2ccc(O)c(C)c2)cc1 [10b] | – | 186 to 187 | 3.49 | – |
| Cc1cc(C2(c3cn(C)c4ccccc34)COC2)ccc1O [C00001] | – | – | – | microsomal CLint at 1 h, 1 µM [4]: 22.9 µL/min/mg |
| Cc1cc(C(=O)c2cn(C)c3ccccc23)ccc1O [C00002] | – | – | – | microsomal CLint at 1 h, 1 µM [4]: 18 µL/min/mg |
| Cc1cc(C2(c3cn(C)c4ccccc34)COC2)ccc1OC1CNC1 [C00003] | – | – | – | microsomal CLint at 1 µM [4]: < 7 µL/min/mg |
| Cc1cc(C(=O)c2cn(C)c3ccccc23)ccc1OC1CNC1 [C00004] | – | – | – | microsomal CLint at 1 µM [4]: < 7 µL/min/mg |
| COc1ccc(C2(c3ccc(O)c(C)c3)COC2)cc1 [C00005] | – | – | – | microsomal CLint at 1 h, 1 µM [4]: 80 µL/min/mg |
| COc1ccc(C(=O)c2ccc(O)c(C)c2)cc1 [C00006] | – | – | – | microsomal CLint at 1 h, 1 µM [4]: 77.4 µL/min/mg |
| COc1ccc(C2(c3ccc(OC4CNC4)c(C)c3)COC2)cc1 [C00007] | – | – | – | microsomal CLint at 1 h, 1 µM [4]: 7.5 µL/min/mg |
| COc1ccc(C(=O)c2ccc(OC3CNC3)c(C)c2)cc1 [C00008] | – | – | – | microsomal CLint at 1 h, 1 µM [4]: 75 µL/min/mg |
| Cc1cc(C2(c3cn(C)c4ccccc34)COC2)ccc1-c1cnc(C(F)(F)F)nc1 [C00009] | – | – | – | microsomal CLint at 1 h, 1 µM [4]: 8.5 µL/min/mg |
| Cc1cc(C(=O)c2cn(C)c3ccccc23)ccc1-c1cnc(C(F)(F)F)nc1 [C00010] | – | – | – | microsomal CLint at 1 µM [4]: < 7 µL/min/mg |
